Article PMC8459971, “Evaluation of the hepatotoxicity of the novel GPR40 (FFAR1) agonist CPL207280 in the rat and monkey” (PLoS ONE, 2021)
Several values for one entry are separate records, joined by “and”; a condition that tells them apart may be missing. Identical values can stand only once. Like-named read-outs stand apart in the source and are kept apart here.

Experiments:
[1] = Viability assay, human primary hepatocytes, RT-glo, 48 h; type: cell-based; conditions: human, primary human hepatocytes, sheet Fig1 panel C (primary human hepatocytes), 48 h, replicates, read-out: viability, normalized to DMSO-treated controls
Experimental: (§1) To study the viability of the liver cells, 5 × 10^3 HepG2 (ATCC®) or human primary cells (ThermoFisher Scientific, USA) were seeded in 100 μL of DMEM media (Gibco; Thermo Fisher Scientific, USA) supplemented with fetal bovine serum (FBS)- in a 96-well plate. […] The experiments were performed in triplicates.

[2] = test system: human primary hepatocytes; assay: as above; type: cell-based; conditions: 48 h
Experimental: as §1

[3] = Stability in microsomes, human; type: in vitro ADME; conditions: for average DEG [%]: human microsomes, with cofactors
Experimental: The final incubation volume was 500 μL. Two control compounds (verapamil and donepezil) were included for each microsomal species, along with the appropriate vehicle control. The reactions were terminated by transferring 50 μL of incubate to 100 μL methanol containing an internal standard (metoprolol) at appropriate time points (0, 10, 20, 40, 60, and 120 min for the test compound and 0, 5, 10, 20, 40, and 60 min for the control compounds). The termination plates were centrifuged at 4000 x g at 4°C for 30 min to precipitate the protein. The supernatants were then collected for analysis, and LC-MS/MS was used for detection purposes. The system consisted of an Acquity™ Binary Solvent Manager, Acquity™ 4-position heated column manager, 2777 Ultra High Pressure Autosampler, and a Xevo-TQ MS triple quadrupole mass spectrometer (Waters Ltd., Herts, UK). This process was carried out twice.

[4] = Single-dose pharmacokinetics in rats (p.o. and i.v.); type: in vivo, rat; parameters: plasma conc: unit not given here; conditions: for plasma conc: single animals; for AUC: read-out: AUC
[5] = target: T1, OAT1 (Homo sapiens, UniProt Q4U2R8); assay: Uptake transporter inhibition assay, OAT1; conditions: for Accumulation (counts per minute; CPM) HEK293FT-MOCK / Accumulation (counts per minute; CPM) HEK293FT-OAT1: OAT1;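 also: HEK293FT cells expressing OAT1 or mock, uptake of radiolabeled probe substrate at 37 °C in HBSS pH 7.4 with test compound or solvent, cell lysate read by liquid scintillation counting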
T1 sequence (Q4U2R8 1-563): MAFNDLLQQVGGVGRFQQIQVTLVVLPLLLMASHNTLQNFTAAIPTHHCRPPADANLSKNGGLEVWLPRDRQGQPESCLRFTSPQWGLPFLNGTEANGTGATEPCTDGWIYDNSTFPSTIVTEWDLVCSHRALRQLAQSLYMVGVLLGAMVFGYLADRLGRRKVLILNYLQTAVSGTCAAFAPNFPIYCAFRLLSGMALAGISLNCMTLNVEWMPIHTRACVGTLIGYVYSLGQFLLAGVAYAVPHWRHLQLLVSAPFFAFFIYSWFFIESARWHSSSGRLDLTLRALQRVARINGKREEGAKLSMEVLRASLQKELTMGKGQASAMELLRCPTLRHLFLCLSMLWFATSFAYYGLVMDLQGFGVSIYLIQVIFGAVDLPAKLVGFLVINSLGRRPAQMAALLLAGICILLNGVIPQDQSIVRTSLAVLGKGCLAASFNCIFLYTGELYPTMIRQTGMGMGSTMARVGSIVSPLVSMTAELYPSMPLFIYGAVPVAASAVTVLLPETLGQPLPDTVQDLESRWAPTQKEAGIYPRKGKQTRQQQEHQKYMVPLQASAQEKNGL
Experimental: For the uptake transporter inhibition assay, cells were washed twice with 100 μL of the appropriate buffer (HK, pH 7.4) for OATP1B1, followed by HBSS (pH 7.4) for (NTCP, OAT1, OAT2v1, OATP1A2, and OATP1B3). Uptake experiments were carried out at 37 ± 1°C in 50 μL of the respective buffer containing the probe substrate and the compound or solvent. […] After the experiment, cells were washed twice with 100 μL of cold appropriate buffer and lysed with 50 μL of 0.1 M NaOH. Radiolabeled probe substrate transport was determined by measuring an aliquot (35 μL) from each well for liquid scintillation counting.

[6] = target: MRP2 (Homo sapiens, UniProt Q92887); assay: Vesicular transport inhibition assay, MRP2; conditions: for Accumulation (counts per minute; CPM) with AMP / Accumulation (counts per minute; CPM) with ATP: MRP2;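 also: membrane vesicles with probe substrate plus 2 mM glutathione, incubated with 4 mM ATP or AMP (AMP as background control), vesicle-retained substrate measured by liquid scintillation counting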;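 as to Accumulation (counts per minute; CPM) with AMP: ATP 4 mM vs AMP background separates transporter uptake from diffusion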;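 as to Accumulation (counts per minute; CPM) with ATP: ATP 4 mM vs AMP background separates transporter uptake from diffusion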
Experimental: In the vesicular transport inhibition assay (for BSEP, MRP) compounds were incubated with membrane vesicle preparations and the probe substrate. Incubations were carried out in the presence of 4 mM ATP or AMP to distinguish between transporter-mediated uptake and passive diffusion into the vesicles. For MRP2 and MRP3, reactions were carried out in the presence of 2 mM glutathione. Compounds were added to the reaction mixture in 0.75 μL of solvent (1% of the final incubation volume). […] Reactions were initiated by the addition of 25 μL of 12 mM MgATP (or 12 mM AMP in assay buffer as a background control) and preincubated separately. Reactions were quenched by the addition of 200 μL of ice-cold washing buffer and immediate filtration via glass fiber filters mounted on a 96-well plate (filter plate). The filters were washed (5 × 200 μL of ice-cold washing buffer), dried, and the amount of substrate inside the filtered vesicles was determined by liquid scintillation counting.

[7] = rat, plasma, iv, 3 mg/kg, rats, 3 mg/kg i.v.
[8] = rat, plasma, po, 3 mg/kg, rats, 3 mg/kg p.o.

Chain of MRP2 (Q92887 whole entry, the tested form may be a part): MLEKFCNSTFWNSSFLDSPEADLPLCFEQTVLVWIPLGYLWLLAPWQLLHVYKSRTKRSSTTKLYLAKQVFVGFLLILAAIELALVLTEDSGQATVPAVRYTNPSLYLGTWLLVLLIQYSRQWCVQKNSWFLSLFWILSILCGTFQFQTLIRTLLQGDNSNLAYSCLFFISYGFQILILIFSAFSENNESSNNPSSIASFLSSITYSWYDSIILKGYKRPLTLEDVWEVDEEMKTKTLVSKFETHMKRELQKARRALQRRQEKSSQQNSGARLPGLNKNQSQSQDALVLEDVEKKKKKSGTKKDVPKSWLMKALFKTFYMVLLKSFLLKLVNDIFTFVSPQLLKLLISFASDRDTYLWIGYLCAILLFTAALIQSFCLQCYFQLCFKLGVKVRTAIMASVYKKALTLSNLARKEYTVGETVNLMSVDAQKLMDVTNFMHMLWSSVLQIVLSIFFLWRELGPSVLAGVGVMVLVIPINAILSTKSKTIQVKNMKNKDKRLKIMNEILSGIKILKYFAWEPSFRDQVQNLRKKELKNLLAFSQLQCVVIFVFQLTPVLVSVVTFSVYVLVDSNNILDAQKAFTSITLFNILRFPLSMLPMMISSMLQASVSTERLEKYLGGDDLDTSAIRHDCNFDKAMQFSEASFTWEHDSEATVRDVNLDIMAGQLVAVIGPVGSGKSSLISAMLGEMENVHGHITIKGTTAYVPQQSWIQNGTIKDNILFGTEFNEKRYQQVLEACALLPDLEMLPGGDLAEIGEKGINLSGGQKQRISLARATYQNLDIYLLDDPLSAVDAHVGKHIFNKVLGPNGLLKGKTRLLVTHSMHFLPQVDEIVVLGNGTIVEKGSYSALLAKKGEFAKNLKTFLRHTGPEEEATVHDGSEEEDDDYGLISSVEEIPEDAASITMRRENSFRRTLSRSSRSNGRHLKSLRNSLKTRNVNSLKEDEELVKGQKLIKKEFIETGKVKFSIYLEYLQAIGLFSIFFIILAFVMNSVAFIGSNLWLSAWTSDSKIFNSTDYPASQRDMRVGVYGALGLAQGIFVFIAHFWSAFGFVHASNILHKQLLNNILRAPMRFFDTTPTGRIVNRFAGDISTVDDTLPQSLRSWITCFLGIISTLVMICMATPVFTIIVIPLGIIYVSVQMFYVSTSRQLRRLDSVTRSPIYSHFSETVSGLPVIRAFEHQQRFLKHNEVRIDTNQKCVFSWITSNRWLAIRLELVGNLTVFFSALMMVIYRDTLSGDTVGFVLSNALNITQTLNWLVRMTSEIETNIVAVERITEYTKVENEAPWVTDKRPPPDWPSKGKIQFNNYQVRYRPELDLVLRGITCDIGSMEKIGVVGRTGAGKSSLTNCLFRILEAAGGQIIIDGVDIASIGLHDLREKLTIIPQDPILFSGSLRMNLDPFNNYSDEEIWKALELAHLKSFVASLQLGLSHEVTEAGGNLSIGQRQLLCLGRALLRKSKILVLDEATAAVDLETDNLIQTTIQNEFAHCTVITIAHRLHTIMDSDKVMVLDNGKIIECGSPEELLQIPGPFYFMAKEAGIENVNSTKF

## Cc1cc(OCCCS(C)(=O)=O)cc(C)c1-c1cccc(COc2ccc3c(c2)OC[C@H]3CC(=O)O)c1 [TAK-875, fasiglifam, reference compound]
[1]; 0.78 uM
  viability at 48 h, 0.78 µM: 117%
[1]; 3.125 uM
  viability at 48 h, 3.125 µM: 113%
[1]; 6.25 uM
  viability at 48 h, 6.25 µM: 89.7%
[1]; 25 uM
  viability at 48 h, 25 µM: 64.7%
[1]; 50 uM
  viability at 48 h, 50 µM: 34.1%
[1]; 100 uM
  viability at 48 h, 100 µM: 4.16%
[2]; human primary hepatocytes, concentrations up to 10 μM
  viability: Neither compound exhibited altered viability
[2]; primary cells, 100 μM
  effect on growth: abolished the growth
[3]; Human microsomes, mean n = 2
  half-life at 3 μM: 3.5 h
  microsomal CLint at 3 μM: 6.6 µL/min/mg
[3]; based on the Clint values from different species, reference ranges by Cyprotex (human range given in legend)
  stability classification in microsomes: stable compound
[3]; 0 min
  average DEG [%]: 100.0%
[3]; 20 min
  average DEG [%]: 110.6%
[3]; 40 min
  average DEG [%]: 92.5%
[3]; 60 min
  average DEG [%]: 85.1%
[4]; rat, 3 mg/kg i.v., 0.08 h, 3 mg/kg
  plasma conc: 14090 and 15902 and 15227 and 5072
[4]; rat, 3 mg/kg i.v., 0.5 h, 3 mg/kg
  plasma conc: 14558 and 12270 and 9258 and 3810
[4]; rat, 3 mg/kg i.v., 1 h, 3 mg/kg
  plasma conc: 8089 and 7692 and 11373 and 4600
[4]; rat, 3 mg/kg i.v., 2 h, 3 mg/kg
  plasma conc: 5223 and 7517 and 9423
[4]; rat, 3 mg/kg i.v., 4 h, 3 mg/kg
  plasma conc: 3618 and 4301 and 3765
[4]; rat, 3 mg/kg i.v., 7 h, 3 mg/kg
  plasma conc: 1974 and 2103 and 1928 and 4512
[4]; rat, 3 mg/kg i.v., 12 h, 3 mg/kg
  plasma conc: 1056 and 769 and 1435
[4]; rat, 3 mg/kg p.o., 0.5 h, 3 mg/kg
  plasma conc: 1176 and 692 and 854 and 1110
[4]; rat, 3 mg/kg p.o., 1 h, 3 mg/kg
  plasma conc: 1699 and 1467 and 1460 and 1557
[4]; rat, 3 mg/kg p.o., 2 h, 3 mg/kg
  plasma conc: 1890 and 1694 and 1808 and 1814
[4]; rat, 3 mg/kg p.o., 4 h, 3 mg/kg
  plasma conc: 1443 and 1502 and 1610 and 1643
[4]; rat, 3 mg/kg p.o., 8 h, 3 mg/kg
  plasma conc: 681 and 636 and 614 and 960 and 463
[4]; rat, 3 mg/kg p.o., 24 h
  plasma conc: 0
[4]; [7]
  Tmax: 0.083 h
  AUC: 45200 ± 4680 ng·h/mL
[4]; rat, plasma, iv, 3 mg/kg, rats, 3 mg/kg i.v., n = 5, read-out: Cmax
  Cmax: 15100 ± 916 ng/mL
[4]; rat, plasma, oral, rats, 3 mg/kg p.o. vs i.v., read-out: F (bioavailability)
  bioavailability: 38%
[4]; [8]
  Tmax: 2 h
  AUC: 15800 ± 1510 ng·h/mL
[4]; rat, plasma, rats, 3 mg/kg
  Vd: 0.25 ± 0.01 L/kg
  k el: 6.67e-05 s⁻¹
[4]; rats, 3 mg/kg
  greater distribution volume (Vd) than CPL207280: 20%
[5]
  IC50: 34.8 µM
[5]; conc 0.10 µM
  Accumulation (counts per minute; CPM) HEK293FT-MOCK: 34 CPM and 47 CPM
  Accumulation (counts per minute; CPM) HEK293FT-OAT1: 3883 CPM and 3843 CPM
[5]; conc 0.30 µM
  Accumulation (counts per minute; CPM) HEK293FT-MOCK: 36 CPM and 29 CPM
  Accumulation (counts per minute; CPM) HEK293FT-OAT1: 3654 CPM and 3608 CPM
[5]; conc 1.00 µM
  Accumulation (counts per minute; CPM) HEK293FT-MOCK: 32 CPM and 37 CPM
  Accumulation (counts per minute; CPM) HEK293FT-OAT1: 3568 CPM and 3527 CPM
[5]; conc 3.00 µM
  Accumulation (counts per minute; CPM) HEK293FT-MOCK: 36 CPM and 37 CPM
  Accumulation (counts per minute; CPM) HEK293FT-OAT1: 3226 CPM and 3417 CPM
[5]; conc 10.00 µM
  Accumulation (counts per minute; CPM) HEK293FT-MOCK: 34 CPM and 39 CPM
  Accumulation (counts per minute; CPM) HEK293FT-OAT1: 3074 CPM and 3122 CPM
[5]; conc 30.00 µM
  Accumulation (counts per minute; CPM) HEK293FT-MOCK: 36 CPM and 39 CPM
  Accumulation (counts per minute; CPM) HEK293FT-OAT1: 1739 CPM and 1807 CPM
[5]; conc 100.00 µM
  Accumulation (counts per minute; CPM) HEK293FT-MOCK: 33 CPM and 31 CPM
  Accumulation (counts per minute; CPM) HEK293FT-OAT1: 496 CPM and 493 CPM
[6]
  IC50: 48.1 µM
[6]; conc 0.07 µM
  Accumulation (counts per minute; CPM) with AMP: 234 CPM and 221 CPM
  Accumulation (counts per minute; CPM) with ATP: 3160 CPM and 3355 CPM
[6]; conc 0.21 µM
  Accumulation (counts per minute; CPM) with AMP: 218 CPM and 217 CPM
  Accumulation (counts per minute; CPM) with ATP: 3318 CPM and 3579 CPM
[6]; conc 0.62 µM
  Accumulation (counts per minute; CPM) with AMP: 249 CPM and 186 CPM
  Accumulation (counts per minute; CPM) with ATP: 3453 CPM and 3166 CPM
[6]; conc 16.67 µM
  Accumulation (counts per minute; CPM) with AMP: 211 CPM and 200 CPM
  Accumulation (counts per minute; CPM) with ATP: 2989 CPM and 3430 CPM
[6]; conc 50.00 µM
  Accumulation (counts per minute; CPM) with AMP: 220 CPM and 191 CPM
  Accumulation (counts per minute; CPM) with ATP: 1700 CPM and 1670 CPM
